In patent publication US7452865B2, “Antagonistic analogs of GH RH (2003)” (The Administrare's of the Tulane Educational Fund, priority 2004, dated 2008):
Square brackets hold non-standard residues; d marks the D form. Peptide text beside a SMILES is read from it. * marks the point of attachment. Phe(4-Cl) = N[C@@H](Cc1ccc(Cl)cc1)C(=O)O; C14 diacid = O=C(O)CCCCCCCCCCCCC(=O)*; HOOC(CH2)8CO = O=C(O)CCCCCCCCC(=O)*; hArg = N=C(N)NCCCC[C@H](N)C(=O)O; Decanoyl = CCCCCCCCCC(=O)*; Nle = CCCC[C@H](N)C(=O)O; Octanoyl = CCCCCCCC(=O)*; Abu = CC[C@H](N)C(=O)O; PhAc = O=C(Cc1ccccc1)*

What was measured:
[1] = tested on: hGH-RH(1-29)NH2 induced GH release; assay: Inhibition of GH release in superfused rat pituitary system; format: cell-based; conditions: for GH response (% of control) 0 min / GH response (% of control) 30 min / GH response (% of control) 60 min / GH response (% of control) 90 min / GH response (% of control) 120 min: antagonist 30 nM; for GH response (% of control) 0 min: 1 nM hGH-RH(1-29)NH2 at 0 min; for GH response (% of control) 30 min: 1 nM hGH-RH(1-29)NH2 at 30 min; for GH response (% of control) 60 min: 1 nM hGH-RH(1-29)NH2 at 60 min; for GH response (% of control) 90 min: 1 nM hGH-RH(1-29)NH2 at 90 min; for GH response (% of control) 120 min: 1 nM hGH-RH(1-29)NH2 at 120 min; for endocrine antagonistic potency: inhibition of the GH release stimulated by hGH-RH(1-29)NH2 (in words): general statement, in vitro and in vivo
Summary of the method: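 GH output was quantified by double-antibody RIA in superfusates of rat pituitary cells. Peptides were applied for 9 min at various concentrations before a 3-min 1 nM hGH-RH(1-29)NH2 pulse, with further pulses 30–120 min later; net integral responses given as percent of the original response.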

[2] = tested on: GH-RH receptor isoforms on membrane fractions of human PC-3 prostate tumors; format: binding; conditions: for binding affinities to the tumoral receptors for GH-RH (in words): general statement
Excerpt: Ligand competition assays with ^125I-labeled GH-RH antagonist JV-1-42 were used to determine the binding affinities of GH-RH analogs to the GH-RH receptor isoforms on membrane fractions of human PC-3 prostate tumors. The methods used have been described in detail (Halmos G, Schally A V, Varga J L, Plonowski A, Rekasi Z, Czompoly T, Proc Natl Acad Sci USA 97: 10555-10560, 2000; Halmos G, Schally A V, Czompoly T, Krupa M, Varga J L, Rekasi Z, J Clin Endocrinol Metab 87: 4707-4714, 2002), hereby incorporated by reference. Briefly, radioiodinated derivatives of JV-142 are prepared by the chloramine-T method. PC-3 tumors, grown as xenografts in nude mice, are used to prepare crude membranes. PC-3 membrane homogenates are incubated with [^125I]JV-142 and increasing concentrations (10^−12 to 10^−6 M) of nonradioactive antagonist peptides as competitors. The pellet is separated by centrifugation and counted for radioactivity in a gamma-counter. The final binding affinities are estimated by K1 (dissociation constant of the inhibitor-receptor complex) and are determined by the Ligand PC and McPherson computer programs of Munson and Rodbard (P. J. Munson and D. Rodbard, Anal. Biochem. […]: 220-239, 1980). Relative affinities (R.A.) compared to reference peptides such as JV-1-36 or JV-1-38, are calculated as the ratio of K1 of the reference peptide to the K, of the tested GH-RH antagonist.

Row | Compound | Relative Affinities (R.A.) to membrane receptors on PC-3 human prostate cancers [2] | binding affinities to the tumoral receptors for GH-RH (in words) [2] | GH response (% of control) 0 min [1] | GH response (% of control) 30 min [1] | GH response (% of control) 60 min [1] | GH response (% of control) 90 min [1] | GH response (% of control) 120 min [1] | endocrine antagonistic potency: inhibition of the GH release stimulated by hGH-RH(1-29)NH2 (in words) [1]
1 | CCCCCCCC(=O)N[C@@H](Cc1ccc(O)cc1)C(=O)N[C@H](CCCNC(=N)N)C(=O)N[C@@H](CC(=O)O)C(=O)N[C@@H](C)C(=O)N[C@H](C(=O)N[C@@H](Cc1ccc(Cl)cc1)C(=O)N[C@H](C(=O)N[C@@H](CC(N)=O)C(=O)N[C@@H](CCCNC(=N)N)C(=O)N[C@@H](Cc1ccc(O)cc1)C(=O)N[C@@H](CCCNC(=N)N)C(=O)N[C@@H](CCCCN)C(=O)N[C@H](C(=O)N[C@@H](CC(C)C)C(=O)N[C@@H](CC)C(=O)N[C@@H](CCC(N)=O)C(=O)N[C@@H](CC(C)C)C(=O)N[C@@H](CO)C(=O)N[C@@H](C)C(=O)N[C@@H](CCCNC(=N)N)C(=O)N[C@@H](CCCCN)C(=O)N[C@@H](CC(C)C)C(=O)N[C@@H](CC(C)C)C(=O)N[C@@H](CCC(N)=O)C(=O)N[C@@H](CC(=O)O)C(=O)N[C@H](C(=O)N[C@@H](CCCC)C(=O)N[C@H](CCCNC(=N)N)C(=O)N[C@@H](CCCCNC(=N)N)C(N)=O)[C@@H](C)CC)C(C)C)[C@@H](C)O)[C@@H](C)CC [Peptide 4, [CH3(CH2)6CO-Tyr^1, D-Arg^2, Phe(pCl)^6, Arg^9, Abu^15, Nle^27, D-Arg^28, Har^29]hGH-RH(1-29)NH2] (Octanoyl-Y[dR]DAI[Phe(4-Cl)]TNRYRKVL[Abu]QLSARKLLQDI[Nle][dR][hArg]-NH2) | 53 | extremely high binding affinities | 5 % of control | 0 % of control | 12 % of control | 8 % of control | 18 % of control | high endocrine antagonistic potencies
2 | CCCCCCCCCC(=O)N[C@@H](Cc1ccc(O)cc1)C(=O)N[C@H](CCCNC(=N)N)C(=O)N[C@@H](CC(=O)O)C(=O)N[C@@H](C)C(=O)N[C@H](C(=O)N[C@@H](Cc1ccc(Cl)cc1)C(=O)N[C@H](C(=O)N[C@@H](CC(N)=O)C(=O)N[C@@H](CCCNC(=N)N)C(=O)N[C@@H](Cc1ccc(O)cc1)C(=O)N[C@@H](CCCNC(=N)N)C(=O)N[C@@H](CCCCN)C(=O)N[C@H](C(=O)N[C@@H](CC(C)C)C(=O)N[C@@H](CC)C(=O)N[C@@H](CCC(N)=O)C(=O)N[C@@H](CC(C)C)C(=O)N[C@@H](CO)C(=O)N[C@@H](C)C(=O)N[C@@H](CCCNC(=N)N)C(=O)N[C@@H](CCCCN)C(=O)N[C@@H](CC(C)C)C(=O)N[C@@H](CC(C)C)C(=O)N[C@@H](CCC(N)=O)C(=O)N[C@@H](CC(=O)O)C(=O)N[C@H](C(=O)N[C@@H](CCCC)C(=O)N[C@H](CCCNC(=N)N)C(=O)N[C@@H](CCCCNC(=N)N)C(N)=O)[C@@H](C)CC)C(C)C)[C@@H](C)O)[C@@H](C)CC [Peptide 6, [CH3(CH2)8CO-Tyr^1, D-Arg^2, Phe(pCl)^6, Arg^9, Abu^15, Nle^27, D-Arg^28, Har^29]hGH-RH(1-29)NH2] (Decanoyl-Y[dR]DAI[Phe(4-Cl)]TNRYRKVL[Abu]QLSARKLLQDI[Nle][dR][hArg]-NH2) | 0.6 | – | 56 % of control | 22 % of control | 12 % of control | 15 % of control | 19 % of control | –
3 | CCCC[C@H](NC(=O)[C@@H](NC(=O)[C@H](CC(=O)O)NC(=O)[C@H](CCC(N)=O)NC(=O)[C@H](CC(C)C)NC(=O)[C@H](CC(C)C)NC(=O)[C@H](CCCCN)NC(=O)[C@H](CCCNC(=N)N)NC(=O)[C@H](C)NC(=O)[C@H](CO)NC(=O)[C@H](CC(C)C)NC(=O)[C@H](CCC(N)=O)NC(=O)[C@H](CC)NC(=O)[C@H](CC(C)C)NC(=O)[C@@H](NC(=O)[C@H](CCCCN)NC(=O)[C@H](CCCNC(=N)N)NC(=O)[C@H](Cc1ccc(OC)cc1)NC(=O)[C@H](Cc1c[nH]cn1)NC(=O)[C@H](CC(N)=O)NC(=O)[C@@H](NC(=O)[C@H](Cc1ccc(Cl)cc1)NC(=O)[C@@H](NC(=O)[C@H](C)NC(=O)[C@H](CC(=O)O)NC(=O)[C@@H](CCCNC(=N)N)NC(=O)[C@H](Cc1ccc(O)cc1)NC(=O)Cc1ccccc1)[C@@H](C)CC)[C@@H](C)O)C(C)C)[C@@H](C)CC)C(=O)N[C@H](CCCNC(=N)N)C(=O)N[C@@H](CCCCNC(=N)N)C(N)=O [Peptide 69, [PhAc-Tyr^1, D-Arg^2, Phe(pCl)^6, His^9, Tyr(Me)^10, Abu^15, Nle^27, D-Arg^28, Har^29]hGH-RH(1-29)NH2] (PhAc-Y[dR]DAI[Phe(4-Cl)]TNHY(Me)RKVL[Abu]QLSARKLLQDI[Nle][dR][hArg]-NH2) | – | extremely high binding affinities | 9 % of control | 12 % of control | 18 % of control | 18 % of control | 25 % of control | high endocrine antagonistic potencies

The next lines start with results.

Row | Relative Affinities (R.A.) to membrane receptors on PC-3 human prostate cancers [2] | binding affinities to the tumoral receptors for GH-RH (in words) [2] | Compound | GH response (% of control) 0 min [1] | GH response (% of control) 30 min [1] | GH response (% of control) 60 min [1] | GH response (% of control) 90 min [1] | GH response (% of control) 120 min [1] | endocrine antagonistic potency: inhibition of the GH release stimulated by hGH-RH(1-29)NH2 (in words) [1]
4 | 1.3 | extremely high binding affinities | CCCC[C@H](NC(=O)[C@@H](NC(=O)[C@H](CC(=O)O)NC(=O)[C@H](CCC(N)=O)NC(=O)[C@H](CC(C)C)NC(=O)[C@H](CC(C)C)NC(=O)[C@H](CCCCN)NC(=O)[C@H](CCCNC(=N)N)NC(=O)[C@H](C)NC(=O)[C@H](CO)NC(=O)[C@H](CC(C)C)NC(=O)[C@H](CCC(N)=O)NC(=O)[C@H](CC)NC(=O)[C@H](CC(C)C)NC(=O)[C@@H](NC(=O)[C@H](CCCCN)NC(=O)[C@H](CCCNC(=N)N)NC(=O)[C@H](Cc1ccc(O)cc1)NC(=O)[C@H](CCCNC(=N)N)NC(=O)[C@H](CC(N)=O)NC(=O)[C@@H](NC(=O)[C@H](Cc1ccc(Cl)cc1)NC(=O)[C@@H](NC(=O)[C@H](C)NC(=O)[C@H](CC(=O)O)NC(=O)[C@@H](CCCNC(=N)N)NC(=O)[C@H](Cc1ccc(O)cc1)NC(=O)CCCCCCCCCCCCC(=O)O)[C@@H](C)CC)[C@@H](C)O)C(C)C)[C@@H](C)CC)C(=O)N[C@H](CCCNC(=N)N)C(=O)N[C@@H](CCCCNC(=N)N)C(N)=O [Peptide 11, [HOOC(CH2)12CO-Tyr^1, D-Arg^2, Phe(pCl)^6, Arg^9, Abu^15, Nle^27, D-Arg^28, Har^29]hGH-RH(1-29)NH2] ({C14 diacid}-Y[dR]DAI[Phe(4-Cl)]TNRYRKVL[Abu]QLSARKLLQDI[Nle][dR][hArg]-NH2) | 14 % of control | 24 % of control | 29 % of control | 34 % of control | 32 % of control | –
5 | 12 | extremely high binding affinities | CCCC[C@H](NC(=O)[C@@H](NC(=O)[C@H](CC(=O)O)NC(=O)[C@H](CCC(N)=O)NC(=O)[C@H](CC(C)C)NC(=O)[C@H](CC(C)C)NC(=O)[C@H](CCCCN)NC(=O)[C@H](CCCNC(=N)N)NC(=O)[C@H](C)NC(=O)[C@H](CO)NC(=O)[C@H](CC(C)C)NC(=O)[C@H](CCC(N)=O)NC(=O)[C@H](CC)NC(=O)[C@H](CC(C)C)NC(=O)[C@@H](NC(=O)[C@H](CCCCN)NC(=O)[C@H](CCCNC(=N)N)NC(=O)[C@H](Cc1ccc(O)cc1)NC(=O)[C@H](CCCNC(=N)N)NC(=O)[C@H](CC(N)=O)NC(=O)[C@@H](NC(=O)[C@H](Cc1ccc(Cl)cc1)NC(=O)[C@@H](NC(=O)[C@H](C)NC(=O)[C@H](CC(=O)O)NC(=O)[C@@H](CCCNC(=N)N)NC(=O)[C@H](Cc1ccc(O)cc1)NC(=O)CCCCCCCCC(=O)O)[C@@H](C)CC)[C@@H](C)O)C(C)C)[C@@H](C)CC)C(=O)N[C@H](CCCNC(=N)N)C(=O)N[C@@H](CCCCNC(=N)N)C(N)=O [Peptide 7, [HOOC(CH2)8CO-Tyr^1, D-Arg^2, Phe(pCl)^6, Arg^9, Abu^15, Nle^27, D-Arg^28, Har^29]hGH-RH(1-29)NH2] ({HOOC(CH2)8CO}-Y[dR]DAI[Phe(4-Cl)]TNRYRKVL[Abu]QLSARKLLQDI[Nle][dR][hArg]-NH2) | 23 % of control | 13 % of control | 11 % of control | 14 % of control | 14 % of control | high endocrine antagonistic potencies
